Assays:
[1] = biological target: T1, BTK(C481S)-GFP (Homo sapiens, UniProt Q06187+Q96SW2, C481S); test: BTK(C481S)-GFP protein abundance flow cytometry assay in TMD8 cells; format: cell-based
T1 construct: with a mutagenesis reaction on pENTR221-BTK (STOP-Leu); CHYSEL (cis-acting hydrolase element, 2A) remnant after GFP; mCherry is split off as a separate protein (C); expressed in transfected cells; host or cells: TMD8 cells, lentiviral transduction with pLenti6-BTK(C481S)-GFP-CHYSEL-mCherry
Procedure: Compounds of the invention were tested in the following cellular assays. The terms in Table 1 are defined as follows: DC50 refers to the concentration at which 50% maximal degradation was observed; deg Amax is the extent of degradation and the value refers to the % protein remaining at the concentration at which maximum degradation is seen; Prol GI50 refers to the proliferation data and defines the concentration at which 50% growth inhibition was observed compared to the vehicle treated control at the end of the incubation time. TMD8 cells are BTK dependent and OCI-LY3 cells are BTK independent.
BTK(C481S)-GFP Protein Abundance Flow Cytometry Assay in TMD8 Cells:
Degradation of BTK(C481S) was measured in TMD8 cells expressing BTK(C481S)-GFP and mCherry from a stably integrated second generation bicistronic BTK(C481S)-GFP-CHYSEL-mCherry construct. Reduction of the GFP signal measured by flow cytometry served as readout for BTK(C481S) degradation after degrader treatment.

[2] = biological target: T2, IKZF3-GFP (Homo sapiens, UniProt Q9UKT9); test: IKZF3-GFP protein abundance flow cytometry assay in HEK293A cells; format: cell-based; details: 24 h, Table 1
T2 construct: gateway cloning of IKZF3 from a pENTR221-IKZF3(STOP-Leu) construct into the previously described pLenti6-DEST-GFP-Ires-RFP vector; expressed in transfected cells; host or cells: HEK293A cells (Invitrogen R70507), lentiviral transduction with pLenti6-IKZF3-GFP-Ires-RFP, blasticidin-selected
T2 sequence (Q96SW2 whole entry partner): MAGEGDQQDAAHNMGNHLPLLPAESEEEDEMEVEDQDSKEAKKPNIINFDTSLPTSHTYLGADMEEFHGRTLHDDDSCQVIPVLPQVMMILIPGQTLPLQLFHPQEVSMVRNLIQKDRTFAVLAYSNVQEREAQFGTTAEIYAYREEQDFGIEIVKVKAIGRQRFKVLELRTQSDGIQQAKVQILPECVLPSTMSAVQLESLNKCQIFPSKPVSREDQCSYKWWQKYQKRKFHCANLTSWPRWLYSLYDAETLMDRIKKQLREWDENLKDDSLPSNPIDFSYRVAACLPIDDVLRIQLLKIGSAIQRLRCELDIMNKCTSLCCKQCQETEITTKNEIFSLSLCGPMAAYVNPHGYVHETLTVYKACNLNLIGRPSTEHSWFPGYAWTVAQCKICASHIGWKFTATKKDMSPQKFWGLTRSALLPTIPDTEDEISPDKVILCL
T2 sequence (Q16531 whole entry partner): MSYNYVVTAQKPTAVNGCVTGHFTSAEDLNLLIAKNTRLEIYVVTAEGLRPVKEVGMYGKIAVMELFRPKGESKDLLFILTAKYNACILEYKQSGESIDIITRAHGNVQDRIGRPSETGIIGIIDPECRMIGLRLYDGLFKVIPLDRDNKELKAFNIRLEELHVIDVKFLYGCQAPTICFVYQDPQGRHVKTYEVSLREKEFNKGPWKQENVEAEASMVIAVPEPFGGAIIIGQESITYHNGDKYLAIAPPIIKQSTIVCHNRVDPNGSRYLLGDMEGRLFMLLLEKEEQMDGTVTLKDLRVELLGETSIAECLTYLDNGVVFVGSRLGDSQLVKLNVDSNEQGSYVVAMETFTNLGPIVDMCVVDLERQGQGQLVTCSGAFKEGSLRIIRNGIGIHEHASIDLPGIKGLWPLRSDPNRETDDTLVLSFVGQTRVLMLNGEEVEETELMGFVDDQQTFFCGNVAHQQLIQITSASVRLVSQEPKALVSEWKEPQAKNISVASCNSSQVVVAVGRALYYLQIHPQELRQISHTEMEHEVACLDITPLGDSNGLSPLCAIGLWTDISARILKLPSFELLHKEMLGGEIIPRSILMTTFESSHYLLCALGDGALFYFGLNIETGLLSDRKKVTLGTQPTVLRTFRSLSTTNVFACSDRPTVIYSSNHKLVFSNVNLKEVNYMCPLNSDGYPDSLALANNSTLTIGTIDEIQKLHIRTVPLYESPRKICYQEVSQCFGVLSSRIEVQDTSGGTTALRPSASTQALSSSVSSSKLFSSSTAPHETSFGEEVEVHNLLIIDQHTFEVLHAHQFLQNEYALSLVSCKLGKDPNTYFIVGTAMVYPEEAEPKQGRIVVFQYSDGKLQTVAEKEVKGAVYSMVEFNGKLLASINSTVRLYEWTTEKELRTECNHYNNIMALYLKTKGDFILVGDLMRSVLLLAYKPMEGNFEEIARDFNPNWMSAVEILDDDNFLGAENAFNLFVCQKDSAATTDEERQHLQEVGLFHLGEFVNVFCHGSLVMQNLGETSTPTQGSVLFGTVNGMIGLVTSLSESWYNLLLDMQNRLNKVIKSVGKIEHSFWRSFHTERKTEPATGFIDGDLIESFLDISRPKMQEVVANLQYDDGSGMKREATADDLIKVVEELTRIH
T2 sequence (Q9UKT9 whole entry): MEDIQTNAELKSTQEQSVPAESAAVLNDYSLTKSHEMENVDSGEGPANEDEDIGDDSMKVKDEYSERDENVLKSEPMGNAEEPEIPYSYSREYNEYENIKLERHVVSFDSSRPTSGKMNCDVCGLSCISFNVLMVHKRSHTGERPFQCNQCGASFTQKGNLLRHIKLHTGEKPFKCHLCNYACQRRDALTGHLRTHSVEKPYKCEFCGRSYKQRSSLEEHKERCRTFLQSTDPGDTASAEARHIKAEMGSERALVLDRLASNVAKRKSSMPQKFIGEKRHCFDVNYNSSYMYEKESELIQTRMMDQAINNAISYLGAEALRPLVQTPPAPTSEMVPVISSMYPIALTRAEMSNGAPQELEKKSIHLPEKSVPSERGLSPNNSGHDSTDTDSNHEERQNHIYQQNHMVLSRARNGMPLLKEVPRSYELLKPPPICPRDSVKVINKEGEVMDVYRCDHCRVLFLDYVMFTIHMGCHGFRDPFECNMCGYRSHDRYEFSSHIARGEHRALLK
Procedure: Compounds of the invention were tested in the following cellular assays. […] TMD8 cells are BTK dependent and OCI-LY3 cells are BTK independent.
BTK-GFP and IKZF3-GFP Protein Abundance Flow Cytometry Assay in HEK293A Cells:
Degradation of BTK or IKZF3 was measured in HEK293A cells (Invitrogen R70507) expressing either BTK-GFP and RFP or IKZF3-GFP and RFP from a stably integrated bicistronic BTK-GFP-iresRFP or IKZF3-GFP-iresRFP construct, respectively. Reduction of the GFP signal measured by flow cytometry served as readout for BTK or IKZF3 degradation after degrader treatment.
Stable HEK293A-BTK-GFP-iresRFP cells were maintained in complete growth medium (DMEM high Glucose+10% FCS+1% L-Glutamine+1% NEAA+1% NaPyr.) with passaging performed twice per week. On Day 0, HEK293A-BTK-GFP-iresRFP or HEK293A-IKZF3-GFP-iresRFP and HEK293A-iresRFP cells were seeded at 10,000 cells/well in a 96-well microtiter plate in 260 μl complete medium. On Day 1, cells were treated in duplicate with 10-point 1:3 dilution series of compound using the HP D300 Digital Dispenser (Tecan). DMSO concentrations were normalized across the plate to 0.1%. On Day 2, after 24 h of incubation at 37° C., treatment media was discarded, cells rinsed with 100 ul/well PBS and then detached using 40 ul trypsin/well for 5 min. Trypsin was neutralized with 100 ul/well PBS+20% FCS). Flow cytometry was performed on the samples using the BD FACS CANTO II (Becton Dickinson). Cell identification was then performed using forward (FSC) vs. side scatter (SSC) plots. Single cell discrimination is performed using SSC-Width (SSC-W) vs. SSC-Height (SSC-H) plots. Median GFP values for 5,000 single cells are used to determine BTK levels. Median GFP values from HEK293A-iresRFP are used as a background signal and thus defining 0% BTK signal. Median GFP values from DMSO treated HEK293A-BTK-GFP-iresRFP or HEK293A-IKZF3-GFP-iresRFP are used to define 100% BTK signal for subsequent DC50 curves (concentration at 50% BTK degradation). GFP and RFP are read in the channels called FITC and PE, respectively.
Concentration response curves plotting relative reduction of the GFP signal (measured by flow cytometry) versus 10 compound concentrations (starting concentration 10 μM, 3 fold dilution steps) of the compounds allowed generation of DC50 values.
Data is shown in Table 2, in which, DC50 refers to the concentration at which 50% maximal degradation was observed; deg Amax is the extent of degradation and the value refers to the % protein remaining at the concentration at which maximum degradation is seen.

T1 sequence (Q06187 whole entry C481S): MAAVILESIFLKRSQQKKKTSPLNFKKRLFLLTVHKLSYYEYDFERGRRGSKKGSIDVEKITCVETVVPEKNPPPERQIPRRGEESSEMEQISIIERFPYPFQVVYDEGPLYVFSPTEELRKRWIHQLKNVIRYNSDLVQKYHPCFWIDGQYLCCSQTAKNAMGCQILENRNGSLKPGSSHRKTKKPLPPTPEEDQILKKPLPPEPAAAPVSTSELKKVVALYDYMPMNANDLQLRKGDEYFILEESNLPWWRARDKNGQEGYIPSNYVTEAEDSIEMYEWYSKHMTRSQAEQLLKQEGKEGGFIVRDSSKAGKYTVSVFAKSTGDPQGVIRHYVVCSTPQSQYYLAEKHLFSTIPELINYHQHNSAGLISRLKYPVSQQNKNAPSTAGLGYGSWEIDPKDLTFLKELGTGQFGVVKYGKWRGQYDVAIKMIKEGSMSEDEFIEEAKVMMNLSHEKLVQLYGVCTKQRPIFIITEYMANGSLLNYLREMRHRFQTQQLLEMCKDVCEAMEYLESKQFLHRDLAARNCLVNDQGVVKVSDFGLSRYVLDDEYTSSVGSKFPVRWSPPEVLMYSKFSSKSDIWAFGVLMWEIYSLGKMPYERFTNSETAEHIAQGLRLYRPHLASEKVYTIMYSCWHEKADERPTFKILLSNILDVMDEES
T1 sequence (Q96SW2 whole entry): as the sequence (Q96SW2 whole entry partner) above
T1 sequence (Q16531 whole entry partner): as the sequence (Q16531 whole entry partner) above

BTK (C481S) Amax % ([1]; % protein remaining at concentration of maximum degradation): 2.1% | DC50 ([1]; concentration at which 50% maximal degradation was observed): 0.4 nM | IKZF3 deg Amax % ([2]; % protein remaining at maximum degradation): 100.2% | DC50 [2]: > 1100 nM
Compound: COc1ccc(C(=O)N2CCC(CCN3CCC(OCc4ccc(-c5cc6c(-c7cc(F)cc(NC(=O)N8C[C@H](CC(C)C)[C@@H](O)C8)c7C)ncnc6[nH]5)cc4)CC3)CC2)cc1N1CCC(=O)NC1=O [Compound 22, (3R,4S)—N-(3-(6-(4-(((1-(2-(1-(3-(2,4-Dioxotetrahydropyrimidin-1 (2H)-yl)-4-methoxybenzoyl)piperidin-4-yl)ethyl)piperidin-4-yl)oxy)methyl)phenyl)-7H-pyrrolo[2,3-d]pyrimidin-4-yl)-5-fluoro-2-methylphenyl)-3-hydroxy-4-isobutylpyrrolidine-1-carboxamide]

Reference: patent US11541056B2, “3-hydroxy-N-(3-(7H-pyrrolo[2,3-d]pyrimidin-4-yl)phenyl)pyrrolidine-1-carboxamide derivatives” (NOVARTIS AG, priority 2018, dated 2023)
